This note sets out measurements from patent US8183262B2, “Pyridine derivatives as mGluR2 antagonists” (Hoffmann-La Roche Inc., priority 2007, dated 2012).

The target in one data set is T1, rat mGlu2 receptor (Rattus norvegicus, UniProt P31421).
T1 construct: expressed in transfected cells; membranes prepared
As to the kind of experiment: [3H]-LY354740 binding on mGlu2 transfected CHO cell membranes. Conditions: inhibition of 10 nM [3H]-LY354740 binding, membranes of CHO cells transfected with rat mGlu2, room temperature, 1 hour. The source says:
[^3H]-LY354740 Binding on mGlu2 Transfected CHO Cell Membranes. Transfection and Cell Culture
cDNA encoding the rat mGlu2 receptor protein in pBluescript II was subcloned into the eukaryotic expression vector pcDNA I-amp from Invitrogen Ltd (Paisley, UK). This vector construct (pcD1mGR2) was co-transfected with a psvNeo plasmid encoding the gene for neomycin resistance, into CHO cells by a modified calcium phosphate method described by Chen & Okayama (1988). The cells were maintained in Dulbecco's Modified Eagle medium with reduced L-glutamine (1 mM final concentration), 36 mg/L L-Proline and 10% dialysed foetal calf serum from Gibco-Invitrogen; the medium was supplemented with 500 microM α-methyl-4-carboxyphenylglycine (MCPG). Selection was made in the presence of G-418 (300 ug/ml final concentration). Clones were identified by reverse transcription of 5 μg total RNA, followed by PCR using mGlu2 receptor specific primers 5′-[…]-3′ and 5′-[…]-3′ in 60 mM Tris HCl (pH 10), 15 mM (NH4)2SO4, 2 mM MgCl2, 25 units/ml Taq Polymerase with 30 cycles annealing at 60° C. for 1 min., extention at 72° C. for 30 s, and 1 min. 95° C. denaturation.
Cells, cultured as above, were harvested and washed three times with cold PBS and frozen at −80° C. The pellet was resuspended in cold 20 mM HEPES-NaOH buffer containing 10 mM EDTA (pH 7.4), and homogenised with a polytron (Kinematica, A G, Littau, Switzerland) for 10 s at 10 000 rpm. After centrifugation for 30 min. at 4° C., the pellet was washed once with cold 20 mM HEPES-NaOH buffer containing 0.1 mM EDTA, (pH 7.4). After a second centrifugation for 30 min. at 4° C. the pellet was resuspended in cold 20 mM HEPES-NaOH buffer containing 0.1 mM EDTA, (pH 7.4). Protein content was measured using the Micro BCA method from Pierce-Perbio (Rockford, Ill., USA) using bovine serum albumin as standard.
After thawing, the membranes were resuspended in cold 50 mM Tris-HCl buffer containing 2 mM MgCl2 (pH 7.4) (binding buffer). The final concentration of the membranes in the assays was 25 μg protein/ml. Inhibition experiments were performed with membranes incubated with 10 nM [^3H]-LY354740 at room temperature, for 1 hour, in presence of various concentrations of the compound to be tested. Following the incubations, membranes were filtered onto Whatmann GF/B glass fiber filters or onto GF/B Unifilter plates and washed 5 times with cold binding buffer. Non specific binding was measured in the presence of 10 μM (2S,2′R,3′R)-2-(2′3′-Dicarboxycyclopropyl)glycine (DCG IV from Tocris, Ellisville, Mo. USA). After transfer of the filters into plastic vials containing 10 ml of Ultima-gold scintillation fluid from Perkin-Elmer (Boston, Mass., USA), the radioactivity was measured by liquid scintillation in a Tri-Carb 2500 TR counter (Packard, Zürich, Switzerland). For 96-Unifilter plates the radioactivity was measured after addition of Microscint 40 scintillation fluid (Perkin Elmer, Boston Mass.) using a TopCount NXT (Packard)
The inhibition curves were fitted with a four parameter logistic equation giving IC50 values, and Hill coefficients.

Molecules are shown by their SMILES.

T1 sequence (P31421 19-872): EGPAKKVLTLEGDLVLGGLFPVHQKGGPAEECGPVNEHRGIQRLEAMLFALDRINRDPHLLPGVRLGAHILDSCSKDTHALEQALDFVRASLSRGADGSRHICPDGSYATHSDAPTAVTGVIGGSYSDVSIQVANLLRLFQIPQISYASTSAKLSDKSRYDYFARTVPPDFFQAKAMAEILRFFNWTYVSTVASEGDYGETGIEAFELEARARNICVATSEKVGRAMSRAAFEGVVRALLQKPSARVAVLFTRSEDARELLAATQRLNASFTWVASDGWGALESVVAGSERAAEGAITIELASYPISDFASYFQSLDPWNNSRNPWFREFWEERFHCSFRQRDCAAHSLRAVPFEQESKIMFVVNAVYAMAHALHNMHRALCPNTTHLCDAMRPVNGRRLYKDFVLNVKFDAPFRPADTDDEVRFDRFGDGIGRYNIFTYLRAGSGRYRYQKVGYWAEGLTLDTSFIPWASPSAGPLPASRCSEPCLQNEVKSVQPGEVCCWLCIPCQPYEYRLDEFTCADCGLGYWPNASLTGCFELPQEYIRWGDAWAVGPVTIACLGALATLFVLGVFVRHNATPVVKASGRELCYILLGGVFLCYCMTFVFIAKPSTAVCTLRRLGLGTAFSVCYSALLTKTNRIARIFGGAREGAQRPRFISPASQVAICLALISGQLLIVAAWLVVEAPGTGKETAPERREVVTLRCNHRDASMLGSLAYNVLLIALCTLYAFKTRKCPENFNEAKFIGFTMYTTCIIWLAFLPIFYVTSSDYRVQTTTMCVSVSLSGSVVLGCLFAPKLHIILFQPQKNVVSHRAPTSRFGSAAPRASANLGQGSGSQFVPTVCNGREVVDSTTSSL

`Nc1ccc(-c2noc(-c3nc(-c4ccc(C(F)(F)F)cc4)cc(C(F)(F)F)n3)n2)cn1` [Example 11, 5-{5-[4-Trifluoromethyl-6-(4-trifluoromethyl-phenyl)-pyrimidin-2-yl]-[1,2,4]oxadiazol-3-yl}-pyridin-2-ylamine]: the melting point (commonly the temperature of the solid-liquid transition) was found to be 218.5 °C. Moreover, the affinity at rat mGlu2 receptor, expressed as Ki, was 0.0216 µM. Taken in the same sequence, the figures for `Cc1cc(-c2ccc(C(F)(F)F)cc2)cc(-c2cccc(-c3cccnc3)c2)n1` [Example 61, 2-Methyl-6-(3-pyridin-3-yl-phenyl)-4-(4-trifluoromethyl-phenyl)-pyridine] were 89 to 106 °C and 0.013 µM.

Take `Nc1ncc(-c2cccc(-c3nc(-c4ccc(C(F)(F)F)c(OCC(F)(F)F)c4)cc(C(F)(F)F)n3)c2)cn1` [Example 138, 5-(3-{4-[3-(2,2,2-Trifluoro-ethoxy)-4-trifluoromethyl-phenyl]-6-trifluoromethyl-pyrimidin-2-yl}-phenyl)-pyrimidin-2-ylamine]: the melting point is 250 °C. Besides, on rat mGlu2 receptor, the affinity, expressed as Ki, was 0.028 µM. Taken in the same sequence, the figures for `Nc1ccc(-c2cccc(-c3nc(-c4ccc(C(F)(F)F)cc4)cc(C(F)(F)F)n3)c2)cn1` [Example 26, 5-{3-[4-Trifluoromethyl-6-(4-trifluoromethyl-phenyl)-pyrimidin-2-yl]-phenyl}-pyridin-2-ylamine] were 205 °C and 0.014 µM. Compound `Cc1cc(-c2ccc(C(F)(F)F)cc2)cc(-c2cccc(-c3cc(S(N)(=O)=O)c(F)cc3F)c2)n1` [Example 270, 4,6-Difluoro-3′-[6-methyl-4-(4-trifluoromethyl-phenyl)-pyridin-2-yl]-biphenyl-3-sulfonic acid amide] had a melting point of 227 °C. Besides, the Ki – broadly, the equilibrium dissociation constant of an inhibitor or competing ligand from its target – at rat mGlu2 receptor stood at 0.006 µM.

Take `Cc1cc(-c2ccc(Cl)c(Cl)c2)cc(-c2cccc(-c3ccc(N)nc3)c2)n1` [Example 249, 5-{3-[4-(3,4-Dichloro-phenyl)-6-methyl-pyridin-2-yl]-phenyl}-pyridin-2-ylamine]: the melting point is 99 °C (dec.). This compound yielded a Ki at rat mGlu2 receptor of 0.009 µM. As for `Cc1cc(-c2ccc(C(F)(F)F)cc2)cc(-c2ccnc(-c3cccc([N+](=O)[O-])c3)c2)n1` [Example 306, 6-Methyl-2′-(3-nitro-phenyl)-4-(4-trifluoromethyl-phenyl)-[2,4′]bipyridinyl], the melting point turned out to be 164 °C. On rat mGlu2 receptor, this compound showed an inhibition constant (Ki) of 0.038 µM. Take `FC(F)(F)c1ccc(-c2cc(C(F)(F)F)nc(-c3ccncc3)n2)cc1` [Example 39, 2-Pyridin-4-yl-4-trifluoromethyl-6-(4-trifluoromethyl-phenyl)-pyrimidine]: the melting point was determined as 153.5 °C. Besides, the Ki on rat mGlu2 receptor came to 0.0395 µM. For `Cc1cc(-c2ccc(Cl)cc2)nc(-n2cnc(-c3cccc(S(C)(=O)=O)c3)c2)n1` [Example 210, 4-(4-Chloro-phenyl)-2-[4-(3-methanesulfonyl-phenyl)-imidazol-1-yl]-6-methyl-pyrimidine], in that order: 233 °C and 0.023 µM.

For the compound `Nc1ccc(-c2cccc(-c3cc(C(F)(F)F)cc(-c4ccc(C(F)(F)F)cc4)n3)c2)cn1` [Example 60, 5-{3-[4-Trifluoromethyl-6-(4-trifluoromethyl-phenyl)-pyridin-2-yl]-phenyl}-pyridin-2-ylamine], the melting point was 170 to 172 °C. The compound also registered a Ki at rat mGlu2 receptor of 0.032 µM. Taken in the same sequence, the figures for `OCc1ccc(-c2cccc(-c3nc(-c4ccc(C(F)(F)F)cc4)cc(C(F)(F)F)n3)c2)cc1` [Example 114, {3′-[4-Trifluoromethyl-6-(4-trifluoromethyl-phenyl)-pyrimidin-2-yl]-biphenyl-4-yl}-methanol] were 171 °C and 0.006 µM. Taken in the same sequence, the figures for `O=S(=O)(c1cccc(-c2cc(-c3nc(-c4ccc(C(F)(F)F)cc4)cc(C(F)(F)F)n3)ccn2)c1)N1CCCC1` [Example 390, 2-{2-[3-(Pyrrolidine-1-sulfonyl)-phenyl]-pyridin-4-yl}-4-trifluoromethyl-6-(4-trifluoromethyl-phenyl)-pyrimidine] were 184 °C and 0.021 µM.

Take `Cc1cc(-c2ccc(C(F)(F)F)cc2)cc(-c2ccnc(-c3cccc([N+](=O)[O-])c3)n2)n1` [Example 322, 4-[6-Methyl-4-(4-trifluoromethyl-phenyl)-pyridin-2-yl]-2-(3-nitro-phenyl)-pyrimidine]: the Ki on rat mGlu2 receptor stood at 0.009 µM.

In the case of `CCOc1cc(-c2cc(C(F)(F)F)nc(-c3nc(-c4ccc(N)nc4)no3)n2)ccc1C(F)(F)F` [Example 90, 5-{5-[4-(3-Ethoxy-4-trifluoromethyl-phenyl)-6-trifluoromethyl-pyrimidin-2-yl]-[1,2,4]oxadiazol-3-yl}-pyridin-2-ylamine], the melting point was found to be 216 °C. At rat mGlu2 receptor, this compound showed a Ki of 0.055 µM. On rat mGlu2 receptor, `Cc1cc(-c2ccc(C(F)(F)F)cc2)cc(-c2ccnc(-c3cccc(NS(C)(=O)=O)c3)n2)n1` [Example 330, N-(3-{4-[6-Methyl-4-(4-trifluoromethyl-phenyl)-pyridin-2-yl]-pyrimidin-2-yl}-phenyl)-methanesulfonamide] gave an inhibition constant (Ki) of 0.004 µM. In other words, the single-digit nanomolar range.

Regarding `FC(F)(F)c1ccc(-c2cc(C(F)(F)F)nc(-n3cnc(-c4ccncc4)n3)n2)cc1` [Example 148, 2-(3-Pyridin-4-yl-[1,2,4]triazol-1-yl)-4-trifluoromethyl-6-(4-trifluoromethyl-phenyl)-pyrimidine], the melting point stood at 248 °C. The compound further displayed a Ki on rat mGlu2 receptor of 0.049 µM. For `Cc1cc(-c2ccc(Cl)c(Cl)c2)cc(-n2ccnc2)n1` [Example 247, 4-(3,4-Dichloro-phenyl)-2-imidazol-1-yl-6-methyl-pyridine], the melting point was determined as 227 °C. The compound further registered a Ki at rat mGlu2 receptor of 0.041 µM.

Turning to `Cc1cc(-c2ccc(C(F)(F)F)cc2)cc(-c2cccc(-c3cccc(S(=O)(=O)O)c3)n2)n1` [Example 345, 3-[6′-Methyl-4′-(4-trifluoromethyl-phenyl)-[2,2′]bipyridinyl-6-yl]-benzenesulfonic acid], at rat mGlu2 receptor, the Ki was 0.0007 µM. This lies in the sub-nanomolar range.

Regarding `Cc1cc(-c2ccc(C(F)(F)F)cc2)cc(-c2cccc(-c3cccc(NS(=O)(=O)NC(=O)OC(C)(C)C)c3)n2)n1` [Example 334, N-(tert-Butoxycarbonyl)-N′-{3-[6′-methyl-4′-(4-trifluoromethyl-phenyl)-[2,2′]bipyridinyl-6-yl]-phenyl}-sulfamide], on rat mGlu2 receptor, the Ki was determined as 0.011 µM.

As for `CC(C)(C)NS(=O)(=O)c1cccc(-c2cn(-c3cc(C(F)(F)F)cc(-c4ccc(C(F)(F)F)cc4)n3)cn2)c1` [Example 280, N-tert-Butyl-3-{1-[4-trifluoromethyl-6-(4-trifluoromethyl-phenyl)-pyridin-2-yl]-1H-imidazol-4-yl}-benzenesulfonamide], affinity on rat mGlu2 receptor was put at a Ki of 0.003 µM. Still for that read-out and setting: the figure for `Nc1ccc(-c2ncn(-c3cc(C(F)(F)F)cc(-c4ccc(C(F)(F)F)cc4)n3)n2)cn1` [Example 277, 5-{1-[4-Trifluoromethyl-6-(4-trifluoromethyl-phenyl)-pyridin-2-yl]-1H-[1,2,4]triazol-3-yl}-pyridin-2-ylamine] is 0.071 µM; for `Cc1cc(-c2ccc(C(F)(F)F)cc2)cc(-c2ccnc(-c3cccc(NS(N)(=O)=O)c3)n2)n1` [Example 338, N-(3-{4-[6-Methyl-4-(4-trifluoromethyl-phenyl)-pyridin-2-yl]-pyrimidin-2-yl}-phenyl)-sulfamide] it is 0.001 µM.
